≈ marks a conversion by molar mass, not a printed value. Where “and” joins values, the source holds several entries; their conditions need not be identical. Equal entries are not always repeated.
Experiments:
[1] = Cytotoxicity against human A549 cells assessed as cell viability at 3.13 ug/ml incubated for 24 hrs by MTT assay relative to control; format: toxicity, cell-based; details: at 3.13 µg/mL, read-out: Activity
[2] = Cytotoxicity against human THP-1 cells assessed as cell viability at 3.13 ug/ml incubated for 24 hrs by MTT assay relative to control; format: toxicity, cell-based; details: at 3.13 µg/mL, read-out: Activity
[3] = Cytotoxicity against human A549 cells assessed as cell viability at 12.5 ug/ml incubated for 24 hrs by MTT assay relative to control; format: toxicity, cell-based; details: at 12.5 µg/mL, read-out: Activity
Staphylococcus aureus [4] = experiment: Synergistic antibacterial activity against ciprofloxacin-resistant Staphylococcus aureus 1199B overexpressing norA and harboring A116E grlA mutant assessed as fold reduction in ciprofloxacin MIC at 6.25 uM by broth microdilution method; format: functional
[5] = Cytotoxicity against human THP-1 cells assessed as cell viability at 12.5 ug/ml incubated for 24 hrs by MTT assay relative to control; format: toxicity, cell-based; details: at 12.5 µg/mL, read-out: Activity
Staphylococcus aureus [6] = experiment: Inhibition of EtBr efflux in ciprofloxacin-resistant Staphylococcus aureus 1199B overexpressing norA and harboring A116E grlA mutant assessed as reduction in fluorescence intensity at 10 uM measured for 5 mins by microplate reader analysis relative to control; format: functional
Staphylococcus aureus [7] = experiment: Antibacterial activity against ciprofloxacin-susceptible wild type Staphylococcus aureus 1199 assessed as inhibition of bacterial growth by broth microdilution method; format: functional
Staphylococcus aureus [8] = experiment: Synergistic antibacterial activity against Staphylococcus aureus 1199B overexpressing norA and harboring A116E grlA mutant assessed as four fold minimum potentiating concentration incubated in presence of ciprofloxacin by checkerboard assay; format: functional
Staphylococcus aureus [9] = experiment: Synergistic antibacterial activity against Staphylococcus aureus K2378 overexpressing norA assessed as fold reduction in ciprofloxacin MIC at 0.2 to 12.5 ug/ml by checkerboard assay; format: functional; details: dose 0.2-12.5 µg/ml
Staphylococcus aureus [10] = experiment: Synergistic antibiofilm activity against wild type Staphylococcus aureus 1199 assessed as biofilm eradication by measuring ciprofloxacin MBEC at 3.13 ug/ml incubated for 24 hrs by Calgary biofilm device assay; format: functional; details: dose 3.13 µg/ml
Staphylococcus aureus [11] = experiment: Antibacterial activity against norA deleted Staphylococcus aureus K1902 assessed as inhibition of bacterial growth by broth microdilution method; format: functional
Staphylococcus aureus [12] = experiment: Inhibition of EtBr efflux in ciprofloxacin-resistant Staphylococcus aureus 1199B overexpressing norA and harboring A116E grlA mutant assessed as reduction in fluorescence intensity at 50 uM measured for 5 mins by microplate reader analysis relative to control; format: functional
[13] = Selectivity index, ratio of CC50 for cytotoxicity against human THP-1 cells to MPC for synergistic antibacterial activity against Staphylococcus aureus 1199B overexpressing norA and harboring A116E grlA mutant assessed as four fold minimum potentiating concentration; format: toxicity, cell-based
[14] = Cytotoxicity against human THP-1 cells assessed as cell viability incubated for 24 hrs by MTT assay; format: toxicity, cell-based
Staphylococcus aureus [15] = experiment: Synergistic antibiofilm activity against Staphylococcus aureus 1199B overexpressing norA and harboring A116E grlA mutant assessed as biofilm eradication by measuring ciprofloxacin MBEC at 3.13 ug/ml incubated for 24 hrs by Calgary biofilm device assay; format: functional; details: dose 3.13 µg/ml
Staphylococcus aureus [16] = experiment: Antibacterial activity against ciprofloxacin-resistant Staphylococcus aureus 1199B overexpressing norA and harboring A116E grlA mutant assessed as inhibition of bacterial growth by broth microdilution method; format: functional
Staphylococcus aureus [17] = experiment: Antibacterial activity against Staphylococcus aureus K2378 harbouring norA promoting and coding region assessed as inhibition of bacterial growth by broth microdilution method; format: functional
Staphylococcus aureus [18] = experiment: Antibiofilm activity against norA deleted Staphylococcus aureus K1902 assessed as biofilm eradication incubated for 24 hrs by Calgary biofilm device assay; format: functional
Staphylococcus aureus [19] = experiment: Antibiofilm activity against wild type Staphylococcus aureus 1199 assessed as biofilm eradication incubated for 24 hrs by Calgary biofilm device assay; format: functional
Staphylococcus aureus [20] = experiment: Antibiofilm activity against Staphylococcus aureus 1199B overexpressing norA and harboring A116E grlA mutant assessed as biofilm eradication incubated for 24 hrs by Calgary biofilm device assay; format: functional
Staphylococcus aureus [21] = experiment: Synergistic antibiofilm activity against Staphylococcus aureus 1199B overexpressing norA and harboring A116E grlA mutant assessed as biofilm eradication by measuring fold reduction in ciprofloxacin MBEC at 3.13 ug/ml incubated for 24 hrs by Calgary biofilm device assay; format: functional; details: dose 3.13 µg/ml
Staphylococcus aureus [22] = experiment: (§1) Potentiation of ciprofloxacin-induced antibacterial activity against Staphylococcus aureus 1199B overexpressing norA and harboring A116E grlA mutant assessed as time for post-antibiotic effect at 6.25 ug/ml preincubated for 1 hr followed by compound washout and measured after 5 hrs; format: functional; details: dose 6.25 µg/ml
Staphylococcus aureus [23] = experiment: as §1, with “as” for “as time for”, “effect by measuring log reduction in colony forming unit per ml” for “effect”; format: functional; details: dose 6.25 µg/ml
Staphylococcus aureus [24] = experiment: Synergistic antibacterial activity against Staphylococcus aureus 1199B overexpressing norA and harboring A116E grlA mutant assessed as eight fold minimum potentiating concentration incubated in presence of ciprofloxacin by checkerboard assay; format: functional
Staphylococcus aureus [25] = experiment: (§2) Synergistic bactericidal activity against Staphylococcus aureus 1199B overexpressing norA and harboring A116E grlA mutant assessed as reduction in bacterial count by measuring log reduction in colony forming count per ml at 6.25 ug/ml incubated for 6 hrs in presence of ciprofloxacin at 0.25 to 1 times MIC by time kill assay; format: functional; details: dose 6.25 µg/ml
Staphylococcus aureus [26] = experiment: Synergistic antibiofilm activity against norA deleted Staphylococcus aureus K1902 assessed as biofilm eradication by measuring ciprofloxacin MBEC at 3.13 ug/ml incubated for 24 hrs by Calgary biofilm device assay; format: functional; details: dose 3.13 µg/ml
Staphylococcus aureus [27] = experiment: as §2, with “for 4” for “for 6”; format: functional; details: dose 6.25 µg/ml
Staphylococcus aureus [28] = experiment: Synergistic antibiofilm activity against wild type Staphylococcus aureus 1199 assessed as biofilm eradication by measuring fold reduction in ciprofloxacin MBEC at 3.13 ug/ml incubated for 24 hrs by Calgary biofilm device assay; format: functional; details: dose 3.13 µg/ml

Compound | viability at 24 h, 3.13 ug/ml [1] [%] | viability at 24 h, 3.13 ug/ml [2] [%] | viability at 24 h, 12.5 ug/ml [3] [%] | fold change (FC) (Staphylococcus aureus [4]) | viability at 24 h, 12.5 ug/ml [5] [%] | inhibition (Staphylococcus aureus [6]) [%] | MIC (Staphylococcus aureus [7]) [µg/mL] | fold change (FC) (Staphylococcus aureus [9]) | MBEC (Staphylococcus aureus [10]) [µg/mL] | MIC (Staphylococcus aureus [11]) [µg/mL] | inhibition (Staphylococcus aureus [12]) [%] | CC50 at 24 h [14] [µg/mL] | MBEC (Staphylococcus aureus [15]) [µg/mL] | MIC (Staphylococcus aureus [16]) | MIC (Staphylococcus aureus [17]) [µg/mL] | other results
CCCOc1ccc(-c2cc(OCCN3CCCCCC3)c3cc(OCCC)ccc3n2)cc1 | 100 | 70.3 | 84.5 | 8 | 38.4 | 78.8 | > 50 | 4 | 0.07 | > 50 | 82.3 | > 3.13 | 2.5 | > 50 µg/mL and > 540 µM | > 50 | MPC (Staphylococcus aureus [8]): 0.2 µg/mL; selectivity ratio [13]: > 15
O=C(O)c1cn(C2CC2)c2cc(N3CCNCC3)c(F)cc2c1=O [CIPROFLOXACIN] | – | – | – | – | – | – | 0.08 (≈ 0.241 µM) | – | – | 0.15 (≈ 0.453 µM) | – | – | – | 10 µg/mL (≈ 30.2 µM) | 0.63 (≈ 1.9 µM) | MBEC (Staphylococcus aureus [18]): 40 µg/mL; MBEC (Staphylococcus aureus [19]): 20 µg/mL; MBEC (Staphylococcus aureus [20]): 640 µg/mL
CCCOc1ccc(-c2cc(OCCN(CC)CC)c3cc(Oc4ccccc4)ccc3n2)cc1 | 80.1 | 77.3 | 84.8 | >=8 | 8.2 | 76.1 | > 50 | 4 | 0.07 | 25 (≈ 53.1 µM) | 80.9 | > 3.13 | 1.25 | > 50 µg/mL and > 531 µM | 25 (≈ 53.1 µM) | fold change (FC) (Staphylococcus aureus [21]): 512; Time (Staphylococcus aureus [22]): 1.2 h; log(activity) (Staphylococcus aureus [23]): 1; MPC (Staphylococcus aureus [24]): 1.56 µg/mL; log(activity) (Staphylococcus aureus [25]): 2; MBEC (Staphylococcus aureus [26]): 40 µg/mL; log(activity) (Staphylococcus aureus [27]): 3; fold change (FC) (Staphylococcus aureus [28]): 286

— ChEMBL document CHEMBL5108024, “New C-6 functionalized quinoline NorA inhibitors strongly synergize with ciprofloxacin against planktonic and biofilm growing resistant Staphylococcus aureus strains” (Eur J Med Chem, 2022)
